Reference: US10966937B2, “Compositions and methods for delivery of polyunsaturated fatty acid derivatives and analogs” (Cytometix, Inc., priority 2015, dated 2021)

How the values were obtained:
[1] = Plasma exposure of CMX-020 from enterically coated softgels with DHA TG vehicle; assay type: in vivo, male cynomolgus monkey
Protocol: In FIG. 5, groups of male cynomolgus monkey were administered CMX-020 (40 mg total dose) in enterically coated softgels at 10, 5 and 2.5% (w/w) using high purity DHA in triglyceride form as the delivery vehicle. CMX-020 was measured through time in plasma to determine its concentrations. FIG. 5 illustrates that the systemic exposure of CMX-020 in DHA TG at various concentrations provides suitable systemic exposure for more than 12 hours. In this study, the optimal concentration was 5% displaying an absolute bioavailability of 20%.

[2] = test system: post-operative pain model; assay: Post-operative pain model (hindpaw incision), mechanical allodynia (Von Frey filament); assay type: in vivo, male Sprague Dawley rats; conditions: CMX-020 intraduodenally at various doses in DHA TG, 3 hours post-surgery
Protocol: In FIG. 7, groups of male Sprague Dawley rats were administered CMX-020 intraduodenally at various doses using high purity DHA in triglyceride form as the delivery vehicle. CMX-020 was measured in plasma to determine its concentrations immediately after the efficacy endpoint. Prior to administration, the rat's hindpaw was surgically incised and sutured. 3 hours post-surgery the rats were subjected to mechanical allodynia (Von Frey filament) assessment to quantify the analgesic effect of CMX-020 (% MPE=post drug threshold−baseline threshold/cutoff threshold−baseline threshold×100).

[3] = test system: rodent model of fibromyalgia; assay: Rodent model of fibromyalgia (reserpine), mechanical allodynia, CMX-020 and Pregabalin; assay type: in vivo, male Sprague Dawley rats
[4] = test system: rodent model of osteoarthritis; assay: Rodent model of osteoarthritis (MIA), mechanical allodynia, CMX-020 and Tramadol; assay type: in vivo, male Sprague Dawley rats
[5] = test system: rodent model of spinal nerve ligation; assay: Spinal nerve ligation model, mechanical allodynia, CMX-020 and Duloxetine; assay type: in vivo, male Sprague Dawley rats
Protocol: In FIGS. 14 and 15, groups of male Sprague Dawley rats underwent a spinal nerve ligation method of the left L5 and L6 spinal nerves, inducing a model of peripheral neuropathic pain. 1 weeks later treatment with CMX-020 and Duloxetine were administered either alone or in combination at various combinational doses and efficacy was tested using mechanical allodynia pain thresholds (Von Frey Filaments, up-down method). The method of Chou-Talalay and CompuSyn computer software were used to automate analysis of dose effect data for each individual drug and their combination. […] The fold reduction of Duloxetine in combination with CMX-020 is greater than 2-fold in efficacy ranges at and greater than 20% (FIG. 15).

[6] = test system: rodent model of Chemotherapeutic induced pain; assay: Chemotherapeutic (paclitaxel) induced pain model, mechanical allodynia, CMX-020 and Duloxetine; assay type: in vivo, male Sprague Dawley rats
Protocol: In FIGS. 16 and 17, groups of male Sprague Dawley rats received four daily consecutive injections of paclitaxel (1 mg/kg, ip), followed by a second series of four daily injections one week after the first injection, inducing a model of chemotherapeutic-induced peripheral neuropathy Animals were tested 2-3 days after receiving the last injection of paclitaxel with treatment of CMX-020 and Duloxetine administered either alone or in combination at various combinational doses and efficacy was tested using mechanical allodynia pain thresholds (Von Frey Filaments, up-down method). The method of Chou-Talalay and CompuSyn computer software were used to automate analysis of dose effect data for each individual drug and their combination. […] The fold reduction of Duloxetine in combination with CMX-020 is greater than 2-fold in efficacy ranges at and greater than 20% (FIG. 17).

clinical = conditions: both, human, in vivo, po
[7] = efficacy ranges at and greater than 20%

Question: For `CCCCCC(=O)N(CC/C=C\C/C=C\C/C=C\CCCC(=O)NC1CC1)C(C)C` [CMX-020], which “duration of suitable systemic exposure” value ([1]; CMX-020 40 mg total dose at 10, 5 and 2.5% (w/w) in DHA TG, monkey) is on record?
Answer: Its value is “more than 12 hours”.

Question: And the bioavailability ([1]; male, cynomolgus monkey, plasma, oral, CMX-020 40 mg total dose, 5% (w/w) in DHA TG, read-out: absolute bioavailability)?
Answer: Its bioavailability is 20%.

Question: What about the “relation of systemic exposure to analgesic efficacy (% MPE)” value [2] of the same compound?
Answer: The value was “positively correlates”.

Question: And the “analgesic effect of the combinational therapy (isobologram)” value (“analgesic effect … (isobologram)” below) ([3]; co-administered with Pregabalin)?
Answer: The value was “greater than a simple additive effect”.

Question: What about the “analgesic effect … (isobologram)” value ([4]; in combination with Tramadol, 2 weeks after MIA) of the same compound?
Answer: The value was “greater than a simple additive effect”.

Question: And the “analgesic effect … (isobologram)” value ([5]; in combination with Duloxetine)?
Answer: Its value is “greater than a simple additive effect”.

Question: And the “analgesic effect … (isobologram)” value ([6]; in combination with Duloxetine)?
Answer: The value was “greater than a simple additive effect”.

Question: What about the Tmax (clinical) of the same compound?
Answer: The Tmax was 3.5 to 5.5 h.

Question: What does the source list for `CNCC[C@H](Oc1cccc2ccccc12)c1cccs1` [Duloxetine, reference compound]?
Answer: fold reduction of Duloxetine in combination with CMX-020 [5, 7]: greater than 2 fold; fold reduction of Duloxetine in combination with CMX-020 [6, 7]: greater than 2 fold

Question: With `CC(C)C[C@H](CN)CC(=O)O` [Pregabalin, reference compound] as the compound, how does the “fold reduction of Pregabalin in combination with CMX-020” value ([3]; efficacy ranges at and greater than 35%) read?
Answer: Its value is “greater than 2 fold”.

Question: Which “fold reduction of Tramadol in combination with CMX-020” value ([4]; efficacy ranges at and greater than 10%) does the source give for `COc1cccc(C2(O)CCCCC2CN(C)C)c1` (stereo not drawn) [Tramadol, reference compound] here?
Answer: The value was “greater than 2 fold”.
